One block for each molecule: values may come before it.
What was measured:
[1] = in vivo; cited from earlier work
[2] = Loading and release of other drugs from microparticles embedded within the gel; type: physicochemical
From the text: The loading and release of other drugs (moxiflxacin and vancomycin) with the microparticles embedded within the gel has also been confirmed.

[3] = test system: New Zealand White rabbits; assay: Post-mortem T1-weighted MRI after intravitreal injection of Gd-DOTA in thermoresponsive hydrogel; type: in vivo, rabbit; settings: 24 h after intravitreal injection
Description: Scans were performed within one hour of sacrifice. Soluble Gd-DOTA without MP encapsulation was largely cleared from the injection site at 24 h, with only 56% and 59% signal intensity (relative to nearby muscle tissue) in the vitreous and anterior chamber, respectively. […] The spatiotemporal distribution of Gd-DOTA into the rest of the eye will also provide valuable data for future controlled release formulations of other ocular therapeutics, such as those targeting the posterior segment of the eye.

Molecule: Brimonidine tartrate [BT]
ocular half-life [1]: 28.2 min

Molecule: CN[C@H](CC(C)C)C(=O)N[C@H]1C(=O)N[C@@H](CC(N)=O)C(=O)N[C@H]2C(=O)N[C@H]3C(=O)N[C@H](C(=O)N[C@H](C(=O)O)c4cc(O)cc(O)c4-c4cc3ccc4O)[C@H](O)c3ccc(c(Cl)c3)Oc3cc2cc(c3O[C@@H]2O[C@H](CO)[C@@H](O)[C@H](O)[C@H]2O[C@H]2C[C@](C)(N)[C@H](O)[C@H](C)O2)Oc2ccc(cc2Cl)[C@H]1O [vancomycin]
loading and release with microparticles embedded within the gel [2]: confirmed

signal intensity relative to nearby muscle tissue, anterior chamber [3]: 59%
signal intensity relative to nearby muscle tissue, vitreous [3]: 56%
Molecule: O=C([O-])CN1CCN(CC(=O)[O-])CCN(CC(=O)O)CCN(CC(=O)[O-])CC1.[Gd+3] [Soluble Gd-DOTA, gadolinium-tetraazocyclododecanetetraacetic acid]

Molecule: O=C([O-])CN(CCN(CC(=O)[O-])CC(=O)O)CCN(CC(=O)[O-])CC(=O)O.[Gd+3] [Gd-DTPA]
ocular half-life [1]: 28.08 min
